Data from PMC10781691, “Vertical pathway inhibition of receptor tyrosine kinases and BAD with synergistic efficacy in triple negative breast cancer” (NPJ Precision Oncology, 2024).

System: MDA-MB-231 cells
Assay: Cell survival after siRNA-BAD or scrambled control and NCK
Format: cell-based, human
From the text: To confirm the functional specificity of NCK to BAD, the effect of NCK treatment after siRNA-mediated depletion of BAD expression was examined in MDA-MB-231 cells. […] Consistent with previous findings[32]–[34], no significant changes in cell viability nor CASPASE 3/7 activity were observed upon transfection of siRNA directed to the BAD transcript (Fig. 2g–i).

SMILES: Oc1ccccc1C(c1cccnc1)N1CCN(c2cccc(Cl)c2Cl)CC1 (centres unmarked) [NCK, 2-((4-(2,3-dichlorophenyl)piperazin-1-yl)(pyridin-3-yl)methyl) phenol]
- cell viability vs vehicle (MDA-MB-231, 5 μM NCK): decreased cell viability
- effect on cell viability and CASPASE 3/7 activity after siRNA-mediated depletion of BAD (MDA-MB-231, siRNA-BAD, 5 μM NCK): abolished the effect of NCK
